Source: patent publication US20120076781A1, “METHODS OF TREATING CANCERS WITH HER3 ANTISENSE OLIGONUCLEOTIDES” (ENZON PHARMACEUTICALS, INC., priority 2009, published 2012)
Marks after values point to notes of the source that are not given here. In the oligonucleotide strings, read from the 5' end, every base follows the letter of its sugar. An asterisk marks phosphorothioate; unmarked linkages are phosphodiester. Other units and linkages are bracketed, terminal groups are in braces. A string of capitals states the bases alone. l = locked nucleic acid (LNA); [5mC] = 5-methylcytosine; d = 2'-deoxy (DNA)

What was measured:
Mouse HER3 mRNA = experiment: HER3 mRNA knockdown in liver of nude mice bearing 15PC3 xenografts, qd x 5 (qRT-PCR); format: in vivo; conditions: i.v.
Procedure: (§1) To evaluate the knockdown efficacy of the HER3 oligomeric compounds in vivo, the female nude mice bearing 15PC3 xenografts developed by subcutaneous injection of 5×10^6 cells/mouse into the right axillary flank, were injected intravenously with the oligomers at various doses and injection schedules (i.e. single dose, qd, q3d, q4d). Scrambled oligomer SEQ ID NO: 236 served as a negative control. 24 hours after the last injection, the mice were euthanized and liver and tumor tissues were collected in RNAlater solution (Ambion). Total RNA was purified from the tissues and the levels of HER3 mRNA were determined by quantitative reverse transcription-real time PCR (qRT-PCR) using the QuantiTect Probe RT-PCR kit (Cat#: 204443; Qiagen). GAPDH mRNA served as an internal control.
(§2) 200 ng of total RNA was used in the PCR reaction. The data analyses were performed by using the ABI-7500 PCR Fast System included software.
(§3) Data in Table 5 are presented as % HER3 mRNA levels relative to saline treated controls in liver and tumor samples after i.v. dosing of animals on 5 consecutive days with oligonucleotides in the doses indicated.

human HER3 mRNA [1] = experiment: HER3 mRNA knockdown in 15PC3 xenograft tumor in nude mice, qd x 5 (qRT-PCR); format: in vivo; conditions: i.v., relative to saline controls
Procedure: as §1, §2, §3

HIF-1 alpha mRNA = HIF-1 alpha mRNA in 15PC3 xenograft tumor, different dosing cycle; format: in vivo, human; conditions: every third day
Procedure: as §1
(§4) The knockdown efficacy of oligomers was evaluated in vivo in nude mice bearing xenograft tumors derived from 15PC3 cells or A549 cells (NSCLC) or N87 cells (gastric carcinoma) using a similar protocol to the one described above in Example 11. Oligomers were administered by injection every third day in 2-4 doses. Tissues were harvested 3 or 4 days after the last injection.
(§5) Data in Tables 6 and 7 are presented as % HER3 mRNA or HIF-1 alpha mRNA relative to saline treated controls in liver and tumor samples after i.v. dosing of animals with the indicated oligomers.

HER3 mRNA [2] = experiment: HER3 mRNA knockdown in A549 (NSCLC) xenograft tumor; format: in vivo, human; conditions: 35 mg/kg, q4d x 3, i.v.
Procedure: as §1, §4, §5

HER3 mRNA [3] = experiment: HER3 mRNA knockdown in 15PC3 xenograft tumor, different dosing cycle; format: in vivo, human; conditions: every third day
Procedure: as §1, §4, §5

HER3 mRNA [4] = experiment: HER3 mRNA knockdown in liver of xenograft-bearing nude mice, different dosing cycle; format: in vivo, mouse; conditions: for Liver HER3 mRNA relative to saline treated controls: 15PC3 xenograft mice, every third day
Procedure: as §1
as §4, with “Oligomers were administered by injection every third day in 2-4 doses.” left out
as §5

human HER3 mRNA [5] = experiment: Down-regulation of HER3 mRNA in transfected HUH-7 cells, real-time PCR; format: cell-based; conditions: 25 nM, HUH-7 cells (indicated by *)
Procedure: HUH7: The human hepatocarcinoma cell line was cultured in DMEM (Sigma)+10% fetal bovine serum (FBS)+2 mM Glutamax I+gentamicin (25 μg/ml)+1× Non Essential Amino Acids.
The cells were treated with oligonucleotides using the cationic liposome formulation LipofectAMINE 2000 (Gibco) as transfection vehicle. Cells were seeded in 6-well cell culture plates (NUNC) and treated when 80-90% confluent. Oligomer concentrations ranged from 1 nM to 25 nM final concentration. Formulation of oligomer-lipid complexes was carried out essentially as described by the manufacturer using serum-free OptiMEM (Gibco) and a final lipid concentration of 5 μg/mL LipofectAMINE 2000. […]
(§6) The sample content of human HER3, EGFR and HER2 mRNA was quantified using the human HER3, EGFR and HER2 ABI Prism Pre-Developed TaqMan Assay Reagents (Applied Biosystems cat. no. Hs00951444_ml (HER3), Hs00193306_ml (EGFR) and Hs00170433_ml (HER2) according to the manufacturer's instructions.
Glyceraldehyde-3-phosphate dehydrogenase (GAPDH) mRNA quantity was used as an endogenous control for normalizing any variance in sample preparation. The sample content of human GAPDH mRNA was quantified using the human GAPDH ABI Prism Pre-Developed TaqMan Assay Reagent (Applied Biosystems cat. no. 4310884E) according to the manufacturer's instructions. […]

human EGFR mRNA = experiment: Down-regulation of EGFR mRNA in transfected 15PC3 cells, real-time PCR; format: cell-based; conditions: 25 nM
Procedure: (§7) 15PC3: The human prostate cancer cell line 15PC3 was cultured in DMEM (Sigma)+10% fetal bovine serum (FBS)+2 mM Glutamax I+gentamicin (25 μg/ml).
(§8) The cells were treated with oligonucleotides using the cationic liposome formulation LipofectAMINE 2000 (Gibco) as transfection vehicle. Cells were seeded in 6-well cell culture plates (NUNC) and treated when 80-90% confluent. Oligomer concentrations ranged from 1 nM to 25 nM final concentration. Formulation of oligomer-lipid complexes was carried out essentially as described by the manufacturer using serum-free OptiMEM (Gibco) and a final lipid concentration of 5 μg/mL LipofectAMINE 2000. Cells were incubated at 37° C. for 4 hours and treatment was stopped by removal of oligomer-containing culture medium. Cells were washed and serum-containing medium was added. After oligomer treatment, cells were allowed to recover for 20 hours before they were harvested for RNA analysis.
(§9) Total RNA was extracted from cells transfected as described above and using the Qiagen RNeasy kit (Qiagen cat. no. 74104) according to the manufacturer's instructions. First strand synthesis was performed using Reverse Transcriptase reagents from Ambion according to the manufacturer's instructions.
(§10) For each sample 0.5 μg total RNA was adjusted to (10.8 μl) with RNase free H2O and mixed with 2 μl random decamers (50 μM) and 4 μl dNTP mix (2.5 mM each dNTP) and heated to 70° C. for 3 min after which the samples were rapidly cooled on ice. After cooling the samples on ice, 2 μl 10× Buffer RT, 1 μl MMLV Reverse Transcriptase (100 U/μl) and 0.25 μl RNase inhibitor (10 U/μl) was added to each sample, followed by incubation at 42° C. for 60 min, heat inactivation of the enzyme at 95° C. for 10 min, and then cooling the sample to 4° C.
as §6
(§11) Glyceraldehyde-3-phosphate dehydrogenase (GAPDH) mRNA quantity was used as an endogenous control for normalizing any variance in sample preparation. The sample content of human GAPDH mRNA was quantified using the human GAPDH ABI Prism Pre-Developed TaqMan Assay Reagent (Applied Biosystems cat. no. 4310884E) according to the manufacturer's instructions.
(§12) The cDNA from the first strand synthesis performed as described in Example 5 was diluted 2-20 times, and analyzed by real time quantitative PCR using Taqman 7500 FAST or 7900 FAST from Applied Biosystems. The primers and probe were mixed with 2× Taqman Fast Universal PCR master mix (2×) (Applied Biosystems Cat. #4364103) and added to 4 μl cDNA to a final volume of 10 μl. Each sample was analysed in duplicate. Assaying 2-fold dilutions of a cDNA that had been prepared on material purified from a cell line expressing the RNA of interest generated standard curves for the assays. Sterile H2O was used instead of cDNA for the no-template control. PCR program: 95° C. for 30 seconds, followed by 40 cycles of 95° C., 3 seconds, 60° C., 20-30 seconds. Relative quantities of target mRNA sequence were determined from the calculated Threshold cycle using the Applied Biosystems Fast System SDS Software Version 1.3.1.21. or SDS Software Version 2.3.
(§13) Oligonucleotides presented in Table 4 were evaluated for their potential to down-regulate HER3, EGFR and HER2 mRNA at concentrations of 1, 5 and 25 nM in 15PC3 cells (or HUH-7 as indicated by *) (see FIGS. 2, 3, 4 and 5). SEQ ID NOs: 235 and 236 were used as scrambled controls.
(§14) The data in Table 4 are presented as percentage down-regulation of mRNA relative to mock transfected cells at 25 nM. Lower-case letters represent DNA monomers, bold, upper-case letters represent β-D-oxy-LNA monomers. All cytosines in LNA monomers are 5-methylcytosines. Subscript “s” represents a phosphorothioate linkage.

human HER2 mRNA = experiment: Down-regulation of HER2 mRNA in transfected 15PC3 cells, real-time PCR; format: cell-based; conditions: 25 nM
Procedure: as §7, §8, §9, §10, §6, §11, §12, §13, §14

HER3 mRNA [6] = experiment: HER3 mRNA knockdown in N87 (gastric carcinoma) xenograft tumor; format: in vivo, human; conditions: 25 mg/kg, q3d x 5, i.v.
Procedure: as §1
as §4, with “Oligomers were administered by injection every third day in 2-4 doses.” left out
as §5

Substance: CSGSCSASgSaStStSaSgSaSaSASCSCSt (l[5mC]*lG*l[5mC]*lA*dG*dA*dT*dT*dA*dG*dA*dA*lA*l[5mC]*l[5mC]*dT) [SEQ ID NO: 236, scrambled oligomer, negative control, reference compound]
- HER3 mRNA Liver (Mouse HER3 mRNA; 22.9 mg/kg): 81.4 ± 6.5 % of Sal ctrl
- HER3 mRNA Liver (Mouse HER3 mRNA; 30 mg/kg): 87.6 ± 19 % of Sal ctrl
- HER3 mRNA Liver (Mouse HER3 mRNA; 60 mg/kg): 86.5 ± 9.9 % of Sal ctrl
- HER3 mRNA Liver (Mouse HER3 mRNA; 76.3 mg/kg): 78 ± 17 % of Sal ctrl
- HER3 mRNA Tumor (human HER3 mRNA [1]; 22.9 mg/kg): 119.3 ± 24.9%
- HER3 mRNA Tumor (human HER3 mRNA [1]; 30 mg/kg): 101.2 ± 21.1%
- HER3 mRNA Tumor (human HER3 mRNA [1]; 60 mg/kg): 95.5 ± 12.7%
- HER3 mRNA Tumor (human HER3 mRNA [1]; 76.3 mg/kg): 100 ± 10.5%
- Tumor Hif1A mRNA relative to saline treated controls (HIF-1 alpha mRNA; 76.3 x 4 mg/kg i.v.): 101 ± 13.8%
- HER3 Tumor (HER3 mRNA [2]): 87.6 ± 11.9 % saline control
- Tumor HER3 mRNA relative to saline treated controls (HER3 mRNA [3]; 76.3 x 4 mg/kg i.v.): 106 ± 6.6%
- Liver HER3 mRNA relative to saline treated controls (HER3 mRNA [4]; 76.3 x 4 mg/kg i.v.): 115.9 ± 26.3%
- HER3 Liver (HER3 mRNA [4]; A549 xenograft mice, 35 mg/kg, q4d x 3, i.v.): 97.5 ± 21.2 % saline control

Substance: GSASCSaStScSaScStScStSgSgSTSGST (lG*lA*l[5mC]*dA*dT*dC*dA*dC*dT*dC*dT*dG*dG*lT*lG*lT; antisense) [SEQ ID NO: 196]
- HER3: percentage down-regulation of mRNA relative to mock transfected cells (human HER3 mRNA [5]): 77.0%*

Substance: GSCSTScScSaSgSaScSaStScSaSCSTSC (antisense lG*l[5mC]*lT*dC*dC*dA*dG*dA*dC*dA*dT*dC*dA*l[5mC]*lT*l[5mC]) [SEQ ID NO: 169, β-D-oxy-LNA/DNA phosphorothioate gapmer antisense oligonucleotide targeting HER3]
- HER3 mRNA Liver (Mouse HER3 mRNA; 11.3 mg/kg): 10.2 ± 5.5 % of Sal ctrl
- HER3 mRNA Liver (Mouse HER3 mRNA; 37.7 mg/kg): 20.7 ± 9.8 % of Sal ctrl
- HER3 mRNA Tumor (human HER3 mRNA [1]; 37.7 mg/kg): 77 ± 10%
- Tumor Hif1A mRNA relative to saline treated controls (HIF-1 alpha mRNA; 37.7 x 4 mg/kg i.v.): 94.6 ± 19.6%
- EGFR: percentage down-regulation of mRNA relative to mock transfected cells (human EGFR mRNA): 95.2%
- HER2: percentage down-regulation of mRNA relative to mock transfected cells (human HER2 mRNA): 75.8%
- Tumor HER3 mRNA relative to saline treated controls (HER3 mRNA [3]; 37.7 x 4 mg/kg i.v.): 81.6 ± 12.7%
- Liver HER3 mRNA relative to saline treated controls (HER3 mRNA [4]; 37.7 x 4 mg/kg i.v.): 39 ± 4.6%

Substance: TSASGScScStStStSgSaScScStSCSTSC (antisense lT*lA*lG*dC*dC*dT*dT*dT*dG*dA*dC*dC*dT*l[5mC]*lT*l[5mC]) [SEQ ID NO: 249, reference compound]
- HER3 Tumor (HER3 mRNA [6]): 99.0 ± 8.9 % saline control
- HER3 Liver (HER3 mRNA [4]; N87 xenograft mice, 25 mg/kg, q3d x 5, i.v.): 123 ± 4.5 % saline control
